# Results: US20240416143A1, “PHOTONIC ANTIMICROBIAL WOUND SURFACE DRESSING” (The General Hospital Corporation, priority 2021, published 2024)
# Test system: E. coli biofilm
# Assay: Photoinactivation of 48-hour in vitro biofilms by adjuvant/antibiotic + antimicrobial blue light
# Type: cell-based, Escherichia coli
# Experimental: The bacterial suspension was grown in a shaking incubator overnight in BHI broth. Cells were collected by centrifugation at 4,000 rpm for 5 minutes and suspended in PBS at a density of 10^6 CFU/mL. Then, the biofilms were grown for 48 hours (unless otherwise specified) in 96-well microtiter plates as described previously [Ref. 27], with a renewal of the media every 24 hours. Following the 48-hour biofilm growth, fresh 200 μL of PBS with or without menadione in different concentrations were added to the wells and the biofilms were incubated in the dark at 25° C. for 1 hour: 0, 0.5, 1, and 2 μg/mL for MRSA USA300, AF0001, IQ0064; 0, 1, 10, 30 and 50 μg/mL for P. aeruginosa PA01; and 0, 100, and 150 μg/mL for E. coli ATCC 25922. After that, the control and the menadione-treated biofilms were maintained without irradiation (“menadione/dark”). Simultaneously, the aBL was delivered to the other biofilm groups testing different power densities (50, 30, 15, and 10 mW/cm^2) while keeping the same radiant exposure of 250 J/cm^2. After the light exposure, the biofilms were carefully washed two times with PBS and 200 μL of PBS was added to each well. Then, the bacterial biofilms in each well were harvested by scratching with a sterile pipette tip and three wells of each group were pooled together in a 1.5 mL microcentrifuge tube. The total volume obtained, 600 μL (3 wells), was sonicated using a Branson 2510 Water Bath Sonicator (Marshall Scientific, LLC) for 5 minutes and the CFU was determined by 10-fold serial dilutions in PBS on BHI agar plates. CFU was counted after overnight incubation at 37° C. Experiments were performed in triplicate.
# A bacterial suspension was grown in a shaking incubator overnight in BHI broth. Cells were collected by centrifugation at 4,000 rpm for 5 minutes and suspended in PBS at a density of 10^6 CFU/mL. Then, the biofilms were grown for 48 hours in 96-well microtiter plates with a renewal of the media every 24 hours. Following the 48-hour biofilm growth, fresh 200 μL of PBS with the tetracyclines minocycline, doxycycline, and demeclocycline in different concentrations were added to the wells and the biofilms were incubated in the dark at 25° C. for 1 hour: 0, 0.25, 0.5, and 1 μg/mL for minocycline; 0, 0.5, 1, and 2 μg/mL for doxycycline; and 0, 0.5, 1, and 2 for demeclocycline. After that, the control and the tetracycline-treated biofilms were maintained without irradiation (“menadione/dark”). […] The total volume obtained, 600 μL (3 wells), was sonicated using a Branson 2510 Water Bath Sonicator (Marshall Scientific, LLC) for 5 minutes and the CFU/mL was determined by 10-fold serial dilutions in PBS on BHI agar plates. CFU was counted after overnight incubation at 37° C.
smiles,measurement,setting,value
"CC1=CC(=O)c2ccccc2C1=O [menadione, 2-methyl-1,4-naphthoquinone]",biofilm reduction by menadione without irradiation,"48 h biofilm, dark",< 1 log killing
same,biofilm eradicated by menadione plus aBL,"48 h biofilm, 100 μg/mL menadione + aBL 250 J/cm^2 (50 mW/cm^2)",4.8 log10 CFU/mL
same,enhancement of killing in comparison with aBL alone,"48 h in vitro biofilm, menadione + aBL",1 log-fold
